Biological target: T1, GIRK1-S65A with GIRK2 (UniProt P48542+P48549, S65A)
T1 construct: expressed in transfected cells; host or cells: HEK293 cells
T1 sequence (P48549 1-501 S65A): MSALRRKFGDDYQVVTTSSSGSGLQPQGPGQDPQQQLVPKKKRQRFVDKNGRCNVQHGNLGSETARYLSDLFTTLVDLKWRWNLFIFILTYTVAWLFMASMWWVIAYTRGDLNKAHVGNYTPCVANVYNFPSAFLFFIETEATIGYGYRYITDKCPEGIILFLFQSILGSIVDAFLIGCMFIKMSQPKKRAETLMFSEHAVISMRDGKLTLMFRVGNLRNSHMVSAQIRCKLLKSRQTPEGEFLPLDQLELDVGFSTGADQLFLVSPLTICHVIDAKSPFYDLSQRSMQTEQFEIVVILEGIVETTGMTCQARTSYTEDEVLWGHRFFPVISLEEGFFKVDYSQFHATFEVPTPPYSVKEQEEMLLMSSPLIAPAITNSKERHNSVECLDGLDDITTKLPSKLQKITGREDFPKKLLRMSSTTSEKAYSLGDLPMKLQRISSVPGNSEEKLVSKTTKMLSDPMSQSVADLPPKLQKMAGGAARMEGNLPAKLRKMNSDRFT
T1 sequence (P48542 1-425): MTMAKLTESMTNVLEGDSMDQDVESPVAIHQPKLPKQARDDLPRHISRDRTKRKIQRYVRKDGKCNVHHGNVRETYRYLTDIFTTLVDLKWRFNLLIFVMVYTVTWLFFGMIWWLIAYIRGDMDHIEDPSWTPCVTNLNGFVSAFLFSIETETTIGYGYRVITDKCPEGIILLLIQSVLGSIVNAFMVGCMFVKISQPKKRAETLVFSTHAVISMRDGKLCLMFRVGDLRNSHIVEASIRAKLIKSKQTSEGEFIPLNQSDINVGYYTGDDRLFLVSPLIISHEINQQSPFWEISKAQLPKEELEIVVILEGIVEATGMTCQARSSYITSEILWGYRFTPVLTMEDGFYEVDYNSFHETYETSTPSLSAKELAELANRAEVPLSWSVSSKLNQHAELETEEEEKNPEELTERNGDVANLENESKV
Assay: 5-ptaseOCRL current inhibition, GIRK1/2 channels containing GIRK1-S65A subunits
Assay type: cell-based, human GIRK1, mouse GIRK2
Conditions: 10 μM GAT1508
Text: To identify changes in specific channel residue interactions with PIP2 upon ligand binding, the inventors carried out Principal Component Analysis (PCA) in the presence and absence of ML297 and GAT1508. The PCA analysis implicated changes in the slide (or interfacial) helix interactions with PIP2 upon ligand binding. Polar interactions could be formed between GIRK2^FD(Y76) and GIRK4^FD(Y71) with the P(4,5) of PIP2 when ML297 was bound to the same subunit (FIG. 39 top, FIG. 40). In contrast, when GAT1508 was bound this interaction was retained by GIRK2^FD but not GIRK4^FD (FIG. 39 bottom, FIG. 40). The corresponding GIRK1(S65) residue (FIG. 41, highlighted with vertical rectangle) could be serving the same role in stabilizing the phosphoinositol headgroup for interactions with non-ligand binding subunits. As polar residues, both Ser and Tyr could form H-bond interactions with PIP2. […]
Patch-clamp recording: Whole-cell currents were recorded with an Axopatch 200B amplifier (Molecular Devices) controlled via a USB-interface (National Instruments) using WinWCP software (University of Strathclyde). […] The barium-sensitive component of the current, observed when cells were perfused with the high-K^+ buffer, was analyzed and was determined by perfusing 5 mM BaCl2 in the high-K^+ buffer at the end of each experiment. […]

- protection of current from 5-ptaseOCRL (in words): not protected
SMILES: Cc1cc(NC(=O)Nc2ccc(Br)s2)n(-c2ccccc2)n1 [GAT1508, 1-(5-bromothiophen-2-yl)-3-(3-methyl-1-phenyl-1H-pyrazol-5-yl)urea]

Source: patent US12351574B2, “Selective ligands for modulation of GIRK channels” (Northeastern University, priority 2018, dated 2025)
